Laboratory results from patent US11065336B2, “Conjugates for targeting and clearing aggregates” (MedImmune Limited, priority 2018, dated 2021).
Ends that are not written are not given here.

How the values were obtained:
[1] = system: murine primary macrophages treated with LPS; experiment: FACS binding to activated and non-activated murine primary macrophages; assay type: cell-based; conditions: 10 μM BDB or 1 μM biotinylated human IgG1; 4° C., 1 h
Procedure: (§1) In order to determine the binding affinity of BDB to activated phagocytic cells, activated and non-activated U937 cells or murine primary macrophages were resuspended in the presence of BDB, biotinylated human IgG1, or PBS. The cells were then stained using either AF488-streptavidin conjugate, APC-Cy7 dead/live stain, or dead/live stain only and measured using fluorescence activated cell sorting (FACS).
(§2) Specifically, U937 cells were cultured in RPMI 1640+2 mM Glutamine+10% v/v foetal bovine serum (FCS) for 48 h in the absence or presence of […] human IFNγ (Thermo Fisher Scientific). Murine primary macrophages were cultured for 48 h in the absence or presence of 100 μg/ml LPS (Sigma). Aliquots of 5×10^5 cells were centrifuged 3 min at 300 g and resuspended either in 50 μl of 10 μM BDB, 1 μM biotinylated human IgG1 or PBS. Samples were incubated at 4° C. for 1 h and then centrifuged for 3 min at 100 g. Cells were resuspended in 50 μl of either AF488-streptavidin conjugate (Thermo Fisher Scientific, 1:500 in PBS) with APC-Cy7 dead/live stain (Thermo Fisher Scientific, 1:2000 in PBS) or dead/live stain only. Samples were incubated at 4° C. for 30 min and then centrifuged for 3 min at 100 g. Samples were washed with 200 μl cold PBS and resuspended in 250 μl PBS for analysis using a FACS Canto II, with 10^4 events recorded per condition. […]

[2] = system: U937 cells treated with IFNγ; experiment: FACS binding to activated and non-activated U937 cells; assay type: cell-based; conditions: 10 μM BDB or 1 μM biotinylated human IgG1; 4° C., 1 h
Procedure: as §1, §2

[3] = system: Fc receptor on IFNγ-activated U937 cells; experiment: competition of BDB and cp33 peptide binding with unlabelled human IgG1 (FACS); assay type: cell-based; conditions: 1 μM BDB or cp33; human IgG1 above approximately 10 nM
[4] = system: IFNγ-activated U937 cells; experiment: titrating BDB and IgG1 binding to IFNg stimulated U937 cells (FACS); assay type: cell-based, human; conditions: flow cytometry
Procedure: as §2, with “condition. Using FlowJo software, cells were visualised using forward and side scatter plots (FSC vs. SSC) and live cells were gated according to their live/dead staining. The percentage of live cells positive for AF488 signal was identified for each condition and plotted. The experiment was repeated three times and results present as the mean (+/−SD).” for “condition.”
The binding of BDB and IgG1 to IFNγ stimulated U937 cells was determined using the following methods. […]

[5] = system: amyloid proteins (hen lysozyme (hLys), human full-length alpha synuclein, human tau P301S); experiment: fluorometric assay of binding to amyloid proteins; conditions: 30 μM reporter solution in PBS; excitation 450 nm, emission 460-680 nm; compared to amyloid-free control
Procedure: The binding of BDB to various amyloid proteins was evaluated in vitro using a fluorometric assay.
The amyloid proteins (hen lysozyme (hLys), human full-length alpha synuclein, and human tau P301S) were individually prepared for use in the fluorometric assay. hLys (Sigma) was dissolved in 136.8 mM NaCl, 2.68 mM KCl, 0.01% w/v NaN3, pH 2 at a concentration of 1.45 mg/ml and incubated at 55° C. for 24 h in an orbital shaker at 150 rpm. Human full length alpha synuclein (Alexotech) was dissolved in 150 mM NaCl, 1% v/v triton-x100 in PBS at a concentration of 2.2 mg/ml and incubated at 37° C. for 72 h in an orbital shaker at 250 rpm. Human tau P301S was incubated at 8 mg/ml with 4 mg/ml heparin (Sigma) in PBS, 30 mM 3-(N-morpholino) propanesulfonic acid (MOPS) (pH 7.2) at 37° C. for 72 h. […]
The binding of the BDB to amyloid was detected using a fluorometric assay. The amyloid binding was detected with the use of one of three fluorescent reporters solutions (30 μM BDB, cp33 peptide (Bonetto S et al. FASEB J. 2009; 23(2):575-85) or Thioflavin T (ThT) (Sigma) solution, in PBS). […] An Envision plate reader was set to excite at 450 nm and measure emission within the range 460-680 nm. The corresponding fluorescence signals of the reporter solutions were subtracted from the experimental data.

[6] = system: IFNγ-activated U937 cells; experiment: colocalization of BDB and AF647-labelled hLys amyloid to the surface of U937 cells (FACS); assay type: cell-based, human; conditions: 1 μM BDB or cp33
Procedure: IFNγ-activated U937 cells, a human macrophage cell line, were incubated with either BDB, cp33 peptide, or vehicle in the presence or absence of Alexa Fluor™ 647-labelled hLys amyloid in order to determine if the IFNγ-activated U937 cells have increased binding of amyloid in the presence of BDB or cp33 peptide as compared to vehicle.
Specifically, hLys were labelled with the fluorescent dye alexa 647, using the Alexa Fluor™ 647 Microscale Protein Labelling Kit (Thermo Fisher Scientific) according to the manufacturer's instructions with the following modifications: after protein labelling, the solution was made up to 500 μl with PBS and the sample centrifuged at 20800 for 40 min. The supernatant was discarded and the pellet washed with PBS, resuspended in 500 μl PBS and the centrifugation repeated. The final pellet was resuspended in 100 μl of PBS.
U937 cells were cultured in RPMI 1640+2 mM Glutamine+10% v/v FCS for 48 h in the presence of […] human IFNγ. Aliquots of 5×10^5 cells were centrifuged 3 min at 300 g and resuspended in 50 μl of either 1 μM BDB or cp33 and then incubated with either 1 or 0.1 μM AF647-hLyz. The staining and FACS analysis were performed as before, this time reporting the percentage of live cells positive for both AF488-streptavidin and AF647 h-Lyz.

[7] = system: macrophage-differentiated U937 cells; experiment: phagocytosis of pHrodo-red labelled hLys amyloid (IncuCyte); assay type: cell-based, human
Procedure: Macrophage-differentiated U937 cells were co-incubated with pHrodo-red labelled amyloid, BDB, cp33 peptide, or control in order to determine the amount of amyloid phagocytosed under various conditions. hLys amyloid fibrils were generated as described above and were labelled with the pHrodo Red Microscale Labeling Kit (ThermoFisher) according to the manufacturers instruction except that unincorporated label was removed from the labelled amyloid by three rounds of centrifuging at 20,000×g in a microfuge, discarding the supernatant and resuspending the amyloid pellet in PBS. U937 cells were differentiated into macrophages in the presence of […] M-CSF (Peprotech), 1 μg/ml PMA (Sigma) and […] IFNγ (Thermo Fisher Scientific) for 4 days. 8×10^5 cells/condition were centrifuged for 3 min at 300 g and resuspended in 50 μl of 1 μM BDB, 1 μM cp33, 1 μM BDB with 0.1 μM labelled amyloid, 1 μM cp33 with 0.1 μM labelled amyloid, 0.1 μM labelled amyloid or a 1:100 PBS dilution of a pHrodo Red-labelled E. coli suspension (Thermo Fisher Scientific). […]
The plates were placed in an IncuCyte instrument and settings programmed to scan both in phase contrast and the red fluorescence channel hourly for 48 h. […] A metric of Total Red Object Area (μm^2/well) was used to quantify the appearance of pHrodo red fluorescence within cells. […]

| Compound | binding to murine primary macrophages treated with LPS versus non-activated (percentage of live cells positive for AF488 signal) [1] | binding to U937 cells treated with IFNγ versus non-activated (percentage of live cells positive for AF488 signal) [2] | displacement from binding to IFNγ-activated U937 cells by human IgG1 [3] | IFNg-activated U937 cells bound ([4]; BDB 0.01-5 μM, biotinylated IgG1 0.01-1 μM) [%] | EC50 ([4]; read-out: half-maximal binding to IFNγ-activated U937 cells) [nM] | fluorescence in the presence of amyloid proteins [5] | cell binding with or without amyloid [6] | IFNγ-activated U937 cells binding amyloid (live cells positive for both AF488-streptavidin and AF647 h-Lyz) ([6]; 1 or 0.1 μM AF647-hLyz) | pHrodo red signal in the absence of amyloid ([7]; 1 μM BDB or 1 μM cp33, no amyloid) | phagocytosis of amyloid (pHrodo red signal, Total Red Object Area) ([7]; 1 μM BDB with 0.1 μM labelled amyloid, compared to cp33-amyloid or amyloid alone, hourly for 48 h) |
| --- | --- | --- | --- | --- | --- | --- | --- | --- | --- | --- |
| BDB: conjugate of Compound 1 (carboxylic acid derivative of thioflavin T) added as terminal residue to biotinylated cyclic cp33 peptide derivative (SEQ ID NO:3) (AQVNSCLLLPNLLGCGDDK; not fully specified (bridges); cysteine pairing not given here; also: biotinylated, thioflavin T derivative (Compound 1) added as terminal residue, end not given here) | enhanced binding | enhanced binding | displaced | ≤ 80 | ~200 | increased fluorescence | show cell binding irrespective of whether amyloid is present | Up to 14.4% | did not generate a signal | enhances the phagocytosis of amyloid |
| Cc1ccc2c(c1)sc(-c1ccc(N(C)C)cc1)[n+]2C.[Cl-] [Tht, Thioflavin T, reference compound] |  |  |  |  |  | increased fluorescence |  |  |  |  |
